Reference: patent publication US8895746B2 (University of Central Florida Research Foundation, Inc., priority 2009, dated 2014)

Tests used:
[1] = target: T1, His-tagged Stat3 (Mus musculus, UniProt P42227); test: Surface Plasmon Resonance analysis of binding to immobilized His-tagged Stat3; set-up: species or system murine
T1 construct: Coding regions for the murine Stat3 protein; made in house; host or cells: E. coli BL21(DE3)
Text: Coding regions for the murine Stat3 protein and Stat3 SH2 domain were amplified by PCR and cloned into vectors pET-44 Ek/LIC (Novagen) and pET SUMO (Invitrogen), respectively.
Clones were sequenced to verify the correct sequences and orientation. His-tagged recombinant proteins were expressed in BL21(DE3) cells, and purified on Ni-ion sepharose column.
SensiQ and its analysis software Qdat (ICX Technologies, Oklahoma City, Okla.) were used to analyze the interaction between agents and the Stat3 protein and to determine the binding affinity. Purified Stat3 was immobilized on a HisCap Sensor Chip by injecting 50 µg/ml of Stat3 onto the chip. […] The association and dissociation rate constants were calculated using the Qdat software. The ratio of the association and dissociation rate constants was determined as the affinity (KD).
To provide definitive evidence of direct binding to Stat3, biophysical studies were performed. H1s-tagged Stat3 protein (or SH2 domain; 50 ng) was immobilized on a Ni-NTA sensor chip surface for Surface Plasmon Resonance analysis of the binding of 531201.1066 as the analyte. Association and dissociation measurements were taken and the binding affinity of S31-201.1066 for Stat3 was determined using Qdat software.

[2] = system: c-Myc, Bcl-xL, VEGF, and MMP-9 proteins; test: Immunoblotting of Stat3-regulated gene products in MDA-MB-231 and Panc-1 cells; assay type: cell-based, human; details: 48 h-treatment
Procedure: (§1) Immunoprecipitation from whole-cell lysates and SDS/PAGE and Western blotting analysis were performed as previously described (33,38).
Known Stat3 downstream target genes are key in the dysregulated biological processes promoted by aberrant Stat3 (9, 20, 42).

[3] = target: T2, Stat1:Stat1 complex (Mus musculus, UniProt P42225); test: EMSA selectivity, nuclear extracts of EGF-stimulated NIH3T3/hEGFR, hSIE probe; assay type: biochemical
T2 construct: endogenous in cells; host or cells: EGF-stimulated NIH3T3/hEGFR mouse fibroblasts (nuclear extract)
T2 sequence (P42225 2-749 limits assumed): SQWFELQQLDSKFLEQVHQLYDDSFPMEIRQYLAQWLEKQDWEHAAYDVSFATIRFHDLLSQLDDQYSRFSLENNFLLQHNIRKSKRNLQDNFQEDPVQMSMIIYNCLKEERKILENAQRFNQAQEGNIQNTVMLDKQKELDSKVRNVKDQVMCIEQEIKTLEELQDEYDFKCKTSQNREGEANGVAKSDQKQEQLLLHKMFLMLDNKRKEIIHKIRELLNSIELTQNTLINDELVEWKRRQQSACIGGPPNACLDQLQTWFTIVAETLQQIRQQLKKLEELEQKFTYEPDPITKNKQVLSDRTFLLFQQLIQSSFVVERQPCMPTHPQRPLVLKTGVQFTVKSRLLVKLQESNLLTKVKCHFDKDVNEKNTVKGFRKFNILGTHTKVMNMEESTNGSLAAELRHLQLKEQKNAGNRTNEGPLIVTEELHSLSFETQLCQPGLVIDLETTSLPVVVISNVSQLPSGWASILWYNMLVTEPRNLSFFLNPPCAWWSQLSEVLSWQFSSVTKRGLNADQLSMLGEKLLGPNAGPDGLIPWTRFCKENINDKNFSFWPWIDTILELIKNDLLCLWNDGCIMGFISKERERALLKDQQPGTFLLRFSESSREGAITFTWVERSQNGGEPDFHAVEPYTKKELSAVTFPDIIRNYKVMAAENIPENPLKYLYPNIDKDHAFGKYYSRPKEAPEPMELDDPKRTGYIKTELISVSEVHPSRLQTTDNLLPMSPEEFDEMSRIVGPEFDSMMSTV
Procedure: (§2) Nuclear extract preparations and electrophoretic mobility shift assay (EMSA) were carried out as previously described (28,33). […] Except where indicated, nuclear extracts were pre-incubated with compound for 30 min at room temperature prior to incubation with the radiolabeled probe for 30 min at 30° C. before subjecting to EMSA analysis.

[4] = target: T3, Stat3:Stat3 complex (Mus musculus, UniProt P42227); test: as above; assay type: biochemical
T3 construct: endogenous in cells; host or cells: EGF-stimulated NIH3T3/hEGFR mouse fibroblasts (nuclear extract)
T3 sequence (P42227 2-770 limits assumed, one chain of several): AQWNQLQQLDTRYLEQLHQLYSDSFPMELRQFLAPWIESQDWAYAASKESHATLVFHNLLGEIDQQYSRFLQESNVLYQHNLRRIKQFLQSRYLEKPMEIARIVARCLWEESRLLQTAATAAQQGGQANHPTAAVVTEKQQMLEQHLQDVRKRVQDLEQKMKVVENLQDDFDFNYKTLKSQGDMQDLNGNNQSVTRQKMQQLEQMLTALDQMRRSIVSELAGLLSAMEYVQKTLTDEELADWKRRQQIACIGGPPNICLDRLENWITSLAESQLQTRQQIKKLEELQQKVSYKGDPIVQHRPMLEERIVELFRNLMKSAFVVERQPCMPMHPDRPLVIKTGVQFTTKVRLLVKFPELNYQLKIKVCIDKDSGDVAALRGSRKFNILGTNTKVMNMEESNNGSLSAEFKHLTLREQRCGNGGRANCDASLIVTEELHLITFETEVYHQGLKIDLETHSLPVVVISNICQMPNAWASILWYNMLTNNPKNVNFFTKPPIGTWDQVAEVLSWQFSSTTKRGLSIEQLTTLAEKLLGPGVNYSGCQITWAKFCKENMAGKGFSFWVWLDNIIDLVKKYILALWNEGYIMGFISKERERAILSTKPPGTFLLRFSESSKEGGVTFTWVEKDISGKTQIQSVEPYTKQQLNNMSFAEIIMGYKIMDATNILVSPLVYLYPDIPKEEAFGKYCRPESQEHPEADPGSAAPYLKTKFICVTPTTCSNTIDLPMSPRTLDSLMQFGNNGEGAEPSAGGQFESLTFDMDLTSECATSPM
Procedure: as §2

[5] = target: T4, Stat1:Stat3 complex (Mus musculus, UniProt P42227); test: as above; assay type: biochemical
T4 construct: endogenous in cells; host or cells: EGF-stimulated NIH3T3/hEGFR mouse fibroblasts (nuclear extract)
T4 sequence (P42227 2-770 limits assumed, one chain of several): as above
Procedure: as §2

[6] = system: mouse thymus epithelial stromal cells (TE71); test: CyQuant cell viability; assay type: cell-based
Text: (§3) Aberrant Stat3 promotes malignant cell proliferation, survival and malignant transformation (10, 20, 42). Given that S3I201.1066 disrupts Stat3 activation, we asked the question whether this agent is able to selectively decrease the viability and growth of malignant cells that harbor aberrant Stat3 activity.

[7] = system: normal human pancreatic duct epithelial cells (HPDEC); test: CyQuant cell viability; assay type: cell-based
Text: as §3

[8] = system: pTyr705Stat3; test: Western blot of pTyr705Stat3 in NIH3T3/v-Src and Panc-1 cells; assay type: cell-based, mouse, human; details: 24 h
Procedure: as §1

[9] = system: colocalization of Stat3 and EGFR and Stat3 nuclear translocation; test: Immunofluorescence/confocal microscopy in EGF-stimulated NIH3T3/hEGFR; assay type: cell-based, mouse; details: 50 μM pre-treatment 30 min, EGF 10 min
Procedure: Cells were fixed with ice-cold methanol for 15 min, washed 3 times in PBS, permeabilized with 0.2% Triton® X-100 for 10 min, and further washed 3-4 times with PBS. Specimens were then blocked in 1% BSA for 30 min and incubated with EGFR (Santa Cruz) or Stat3 (Cell Signaling Tech) antibody at 1:50 dilution at 4° C. overnight. Subsequently, cells were rinsed 4-5 times in PBS, incubated with Alexafluor 546 rat antibody for EGFR detection and Alexa fluor 488 rabbit antibody for Stat3 detection (Invitrogen) for 1 h at room temperature in the dark. Specimens were then washed 5 times with PBS, covered with cover slides with […] mounting medium containing DAPI, and examined immediately under a Leica TCS SP5 confocal microscope (Germany) at appropriate wavelengths. Images were captured and processed using the Leica TCS SP 5 software.
Cells were then subjected to immunostaining for EGFR (red) and Stat3 (green) and analyzed by confocal microscopy for EGF-induced colocalization of Stat3 and EGFR and for Stat3 nuclear translocation, as previously performed (17). In the resting NIH3T3/hEGFR fibroblasts, EGFR (red) is widely localized at the plasma membrane, while Stat3 (green) is localized at both the plasma membrane and in the cytoplasm, with a minimal colocalization with EGFR at the plasma membrane and no visible presence in the nucleus (stained blue for DAPI) (FIG. 4A upper panel).

T1 sequence (P42227 whole entry): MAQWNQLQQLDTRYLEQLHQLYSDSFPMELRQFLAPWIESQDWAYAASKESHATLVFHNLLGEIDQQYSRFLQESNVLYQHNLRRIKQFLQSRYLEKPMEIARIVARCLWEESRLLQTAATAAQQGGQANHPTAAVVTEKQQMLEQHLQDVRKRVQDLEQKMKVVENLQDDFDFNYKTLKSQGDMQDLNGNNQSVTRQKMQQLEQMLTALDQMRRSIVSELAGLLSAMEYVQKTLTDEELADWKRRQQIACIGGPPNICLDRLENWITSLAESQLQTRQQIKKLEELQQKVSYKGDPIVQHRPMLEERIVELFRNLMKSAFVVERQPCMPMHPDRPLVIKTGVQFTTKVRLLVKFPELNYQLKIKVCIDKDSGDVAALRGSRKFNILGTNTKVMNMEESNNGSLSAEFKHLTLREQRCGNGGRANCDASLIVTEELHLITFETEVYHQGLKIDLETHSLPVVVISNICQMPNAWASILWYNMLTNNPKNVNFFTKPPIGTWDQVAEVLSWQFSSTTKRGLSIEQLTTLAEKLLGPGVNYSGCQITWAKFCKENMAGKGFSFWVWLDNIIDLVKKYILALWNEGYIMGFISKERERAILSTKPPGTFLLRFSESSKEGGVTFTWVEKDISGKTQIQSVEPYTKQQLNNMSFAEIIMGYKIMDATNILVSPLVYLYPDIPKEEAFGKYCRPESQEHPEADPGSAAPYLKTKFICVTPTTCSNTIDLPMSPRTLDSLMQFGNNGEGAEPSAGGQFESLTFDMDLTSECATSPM

`Cc1ccc(S(=O)(=O)N(C)CC(=O)N(Cc2ccc(C3CCCCC3)cc2)c2ccc(C(=O)O)c(O)c2)cc1` [S3I-201.1066] was tested, and the Kd ([1]; affinity (KD) for Stat3 or the SH2 domain, SPR) was 2300 nM, the Kd ([1]; binding affinity, Ko / KD for Stat3, SPR, immobilized His-Stat3) was 2.74 nM and the “expression of c-Myc, Bcl-xL, VEGF, and MMP-9 proteins” value [2] was “significantly suppressed”. For the same molecule, the “inhibition of Stat1:Stat1 complex” value ([3]; 50 μM) was “no significant inhibition”, the “inhibition of Stat1:Stat1 complex” value ([3]; 100 μM) was “moderate inhibition” and the “inhibition of Stat1:Stat1 complex” value ([3]; 200 μM) was “complete inhibition”. The “effect on Stat3:Stat3 complex with hSIE probe” value ([4]; 50 μM) was “significantly disrupted”, the “effect on Stat3:Stat3 complex with hSIE probe” value ([4]; 100 μM) was “completely disrupted” and the “effect on Stat1:Stat3 complex” value ([5]; 50 μM) was “similarly repressed”. For the same molecule, the “effect on Stat1:Stat3 complex” value ([5]; 100 μM) was “completely disrupted”, the “derived IC60 values, viability” value [6] was greater than 200 μMm and the “derived IC60 values, viability” value [7] was greater than 200 μMm. The pTyr705Stat3 levels [8] was “concentration-dependent reduction” and the “EGF-stimulated colocalization between EGFR and Stat3 and Stat3 nuclear localization” value [9] was “strongly blocked”.
